Experimental data published in the supplement of paper PMC5844555.

Legend:
Test in all cases: 3' UTR reporter interaction score (median-centred robust z-score of log2 firefly/Renilla activity); higher = less repression of the 3' UTR reporter
Conditions in all cases: HEK293T; 48 h
[1] = test system: MYCN
In short: (§1)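 In at least two independent screens, HEK293T cells in 96-well plates (10,000/well) were co-transfected with DharmaFECT Duo using 100 ng firefly luc2P reporter with the gene's 3' UTR, 20 ng Renilla pRL-TK control and 2.5 pmol miRNA mimic, and dual-luciferase activities were read at 48 h. The interaction score, averaged across screens, is the per-plate robust z-score (median, median absolute deviation) of the log firefly/Renilla ratio, median-centred per miRNA, with more negative indicating interaction.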

[2] = test system: PHOX2B
In short: as §1

[3] = test system: NOTCH1
In short: as §1

[4] = test system: RB1
In short: as §1

[5] = test system: HRAS
In short: as §1

[6] = test system: MYC
In short: as §1

[7] = test system: TP53
In short: as §1

[8] = test system: FBXW7
In short: as §1

[9] = test system: MYB
In short: as §1

[10] = test system: BRCA2
In short: as §1

[11] = test system: MYT1L
In short: as §1

[12] = test system: ZEB2
In short: as §1

[13] = test system: EZH2
In short: as §1

[14] = test system: PHF6
In short: as §1

Sequence	3' UTR reporter interaction score [1]	3' UTR reporter interaction score [2]	3' UTR reporter interaction score [3]	3' UTR reporter interaction score [4]	3' UTR reporter interaction score [5]	3' UTR reporter interaction score [6]	3' UTR reporter interaction score [7]	3' UTR reporter interaction score [8]	3' UTR reporter interaction score [9]	3' UTR reporter interaction score [10]	3' UTR reporter interaction score [11]	3' UTR reporter interaction score [12]	3' UTR reporter interaction score [13]	3' UTR reporter interaction score [14]
ACCCUAUCAAUAUUGUCUCUGC	0.109	-0.0439	-0.0515	-0.979	-0.283	0.123	-0.169	0.326	0.329	-0.211	-0.388	0.936	-0.658	0.779
ACUAGACUGAAGCUCCUUGAGG	0.903	-2.05	-0.733	1.2	0.196	0.201	0.442	-1.12	0.78	0.363	0.327	-0.765	0.526	-0.216
ACUCAAAACCCUUCAGUGACUU	-0.913	-0.184	0.701	-0.026	-0.68	-0.294	1.13	0.994	-1.17	0.794	-0.111	0.456	0.495	1.5
ACUCAAAAUGGGGGCGCUUUCC	-0.623	0.0383	-0.52	0.824	0.68	0.445	-0.765	-0.231	-0.497	-0.27	0.0549	0.347	0.137	2.12
ACUCCAGCCCCACAGCCUCAGC	0.185	1.37	-0.369	0.647	0.232	-0.755	-0.602	-1.03	0.784	-0.443	-0.581	-0.519	-0.117	-1.69
ACUCCAUUUGUUUUGAUGAUGGA	0.165	0.953	-0.518	-0.0878	-0.269	-0.0596	0.239	-0.453	-0.2	-0.329	-0.15	0.912	-0.0207	0.594
ACUGCAGUGAAGGCACUUGU	0.762	-0.6	0.45	-0.0483	0.389	0.291	-0.642	-0.112	0.157	0.0527	-0.459	-0.791	-0.638	-0.789
ACUGCCCUAAGUGCUCCUUCU	1.21	0.63	-0.46	-0.147	-0.229	0.276	0.48	0.408	-0.35	-0.325	0.161	-0.687	0.0537	-0.374
ACUGGGGGCUUUCGGGCUCUGCGU	-0.18	-0.685	0.864	0.988	-0.439	-0.444	0.587	0.537	0.119	0.135	0.0192	1.01	-0.722	2.06
ACUUACAGACAAGAGCCUUGCUC	-0.0923	1.47	0.216	-0.353	1.57	0.117	0.219	1.72	-2.25	0.948	-1.75	-0.165	-1.69	-1.11
